Test results: a melting point compilation (Tetko et al.; mined from patent text by program, amines drawn as free bases though some values may be those of a salt)

melting point	SMILES
188 to 190 °C	Nc1cnc(-c2cc(Cl)cc(Cl)c2Cl)c(NC(=O)C2CC2)n1
298 to 303 °C	Nc1cc(-n2ccc(=O)cc2)ccc1[N+](=O)[O-]
119 to 120 °C	COC(=O)Cn1c(=O)c2ccccc2n(CCCCCl)c1=O
100 to 102 °C	O=c1ccsn1Cc1ccc2c(c1)CCO2
109 to 112 °C	CC1CCCCN(C(=O)C2Cc3ccccc3N2c2ccc(=O)n(C)n2)C1 (configuration not stated)
293 to 295 °C	Nc1c(F)c(N2CC(n3cncn3)C2)c(F)c2c1c(=O)c(C(=O)O)cn2C1CC1
269 to 271 °C	Cc1ccc(C(=O)C2=C(O)C(=O)N(c3ncc(S(C)(=O)=O)s3)C2c2ccc(C(C)C)cc2)cc1 (configuration not stated)
68.7 °C	CC#CCOc1nsc(-c2cccc(F)c2)n1
212 to 218 °C	CC1(C)C(=O)C(C)(C)c2cc([N+](=O)[O-])c([N+](=O)[O-])cc21
188 to 190 °C	COc1cc2c(c(OC(C)=O)c1)C1CCC3(C)C(=O)C(Br)CC3C1CC2 (configuration not stated)
> 300 °C	Cc1cc2[nH]c(=O)c3cnccc3n2n1
229 to 231 °C	Clc1cccc(Nc2nnc(-c3ccc4nonc4c3)s2)c1Cl
197 to 201 °C	O=C(Nc1ccccc1C(=O)NCCc1ncc[nH]1)c1ccc(-c2ccccc2)cc1
139 to 140 °C	O=C(NCc1ccc(C(=O)O)c(OCc2ccccc2)c1)OCc1ccccc1
210 °C	COc1ccc2c(c1OC)C(=Cc1ccccc1)c1ccccc1-2
116 to 118 °C	Clc1ccc(CCN2CCC3(CC2)Oc2ccccc2Cn2cccc23)cc1
176 to 178 °C	Clc1nc(SCc2ccccc2)nc2nc[nH]c12

melting point	SMILES
90 to 92 °C	O=C1CC2(CCCC2)CC(=O)N1CCCCN(c1ccncc1)n1c2ccccc2c2ccccc21
88 to 90 °C	CCCCCCC(=N)NC(=S)Nc1cc(C(F)(F)F)ccc1Cl
56.5 to 57.5 °C	CC(=O)/C=C(\C)c1ccc(C2CCCCC2)c(Cl)c1
186 to 189 °C	COc1cccc(P(=O)(c2ccccc2)c2ccccc2)c1I
86 to 88 °C	CCOC(=O)C=CCCc1cn(C(c2ccccc2)(c2ccccc2)c2ccccc2)cn1
73 to 74 °C	COCc1ccc(C(=O)O[C@H](CC(C)C)C(=O)O)o1
130 °C	Cn1nc(C(=O)O)nc1NCCCOc1cccc(CN2CCCCC2)c1
131 to 135 °C	Cn1c(-c2ccc(-c3ccco3)cc2)cnc1[C@H](Cc1ccccn1)N(C=O)OC(C)(C)C
148 °C	CC(c1cc(Cl)cc(Cl)c1O)c1cc(F)cc(CO)c1O (configuration not stated)
98 to 99 °C	COc1c(-c2ccc(O)c(O)c2)oc2cc(O)c(CC=C(C)CCC=C(C)C)c(O)c2c1=O
182 to 183 °C	COc1ccc(Cn2cnc3c(-c4ccco4)nc([N+](=O)[O-])nc32)cc1
53 to 56 °C	COc1cc(CC(=O)N2CCN(C(=O)CNC3CCN(Cc4ccccc4)CC3)C(c3ccccc3)C2)cc(OC)c1OC (configuration not stated)
173 to 175 °C	Cc1ccc(-c2ncc(NC(=O)OCc3ccccc3)c(=O)n2CC(=O)NC(Cc2ccccc2)C(=O)C(F)(F)F)cc1 (configuration not stated)
69 to 71 °C	CC(C)c1nc(COC2=CCCCC2)n(C)c1Sc1cc(Cl)cc(Cl)c1
133 to 135 °C	CC(C)Oc1cc(-n2c(=O)[nH]c(C(F)(F)F)c(F)c2=O)c(F)cc1Cl
148 to 152 °C	CC(=O)C(C)(N=Nc1ccc(C(O)(C(F)(F)F)C(F)(F)F)cc1)C(N)=O (configuration not stated)

Second part, the molecule before the results:

SMILES	melting point
CC(C)N1C(=O)C2Cc3nc[nH]c3CN2C1=O (configuration not stated)	149 to 157 °C
O=C(NCCSc1ccccc1)n1cc(F)c(=O)[nH]c1=O	130 to 133 °C
CC(C)(C)C(F)(F)c1ccc(C[C@@H](C(=O)O)[C@@H](O)c2cccc(Cl)c2)cc1 (racemic)	141 to 142 °C
O=[N+]([O-])c1ccccc1N1CCCc2ccccc21	69 to 71 °C
CC(=O)Nc1ccc(S(=O)c2ccccc2)cc1 (configuration not stated)	135 to 137 °C
CCCC(=O)c1cc2nc(C=O)n(C)c2cc1C	107 to 108 °C
O=C(O)C=Cc1ccc(O)c(Cl)c1	180 to 182 °C
O=C1[C@@H]2Cc3c([nH]c4ccccc34)[C@H](c3ccc4c(c3)OCO4)N2C(=O)N1Cc1ccccc1 (relative stereo)	208 to 210 °C
C#CCc1c(C)nc2c(NCc3c(C)cccc3NC(=O)OC)cc(NC(C)=O)cn12	125 to 128 °C
COc1ccc(CNc2c(C)c(C)c3c(c2C)C(c2ccc(C(C)C)cc2)C(C)(C)O3)cc1 (configuration not stated)	95 to 96 °C
CCCCc1nc(C(O)C(C)C)c(C(N)=O)n1Cc1ccc(-c2ccccc2-c2nnn[nH]2)cc1 (configuration not stated)	155 to 157 °C
COc1ccc(OC)c(S(=O)(=O)n2c(COC(C)(C)C(=O)O)cc3nc(Cl)ccc32)c1	200 °C
CN1C(=O)C(NC(=O)Nc2cccc([N+](=O)[O-])c2)N=C(c2ccccc2)c2ccccc21 (configuration not stated)	288 to 289 °C
CCCc1nc2c(N)nc3ccc(-c4ccc(F)cc4CN)cc3c2s1	198 to 201 °C
CCc1nc2c(C)cc(C)nc2n1Cc1ccc2nc(-c3ccccc3NS(=O)(=O)C(F)(F)F)ccc2c1	252 °C
CSC1=NC2=NC3=C(CSCC3=O)CN2N1	295 to 297 °C
CCC1=C(c2cccc(F)c2)C(=O)N(c2cccc(C(F)(F)F)c2)C1	77.5 to 79 °C
CCc1cc(CC(=O)O)n(C)c1C(=O)c1ccc(Cl)cc1	129 to 131 °C
Cn1ncc(/C=C/C(=O)Nc2ccc(CCc3nccs3)cc2)c1-c1ccc(F)cc1	201 to 202 °C
Cc1nnc(-c2ccc3occ(-c4cnn(Cc5ccccc5C(F)(F)F)c4)c3c2)o1	165 to 166 °C
OCCNc1nc2ccc(Cl)cc2c2nc(-c3ccco3)nn12	214 to 217 °C
O=C(O)C(=O)Nc1ccc2c(=O)c3c(oc2c1)C(=Cc1ccc2c(c1)OCO2)CC3	300 to 305 °C

SMILES	melting point
CC12CCC(OC(=O)c3ccc(Cl)cc3)CC1=CCC1C2CCC2(C)C(=NO)CCC12 (configuration not stated)	167 to 170 °C
CN1CC2CC2(C(=O)O)C1 (configuration not stated)	193 to 195 °C
CCCn1cnc2c1c(=O)n(CCCCCCOc1ccc(Cl)cc1)c(=O)n2C	50 to 51 °C
Nc1c(Br)cc(Nc2ncnc3cnc(N4CCC(N)CC4)nc23)cc1Br	204 to 206 °C
COc1ccc2c(c1)C(CCNC(=O)C(F)(F)F)C1(CC2)Cc2ccccc2C1 (configuration not stated)	149 to 152 °C
CCCC(C)(Oc1ccc(CC(=O)Nc2cc(C)cc(C)c2)cc1)C(=O)O (configuration not stated)	145 to 147 °C
N[C@@H](Cc1ccc(N(CCCl)CCCl)cc1)C(=O)N[C@@H](Cc1cccc(C2CCCC2)c1)C(=O)O	80 to 90 °C
O=C(Cc1ccccc1)c1cccc(OCc2ccccc2)c1	58 to 60 °C
CC(=CC(C)(O)c1ccc(Cl)cc1Cl)n1cncn1 (configuration not stated)	101 °C
CCNC(=O)[C@@H](C[C@H](O)[C@H](CC1CCCCC1)NC(=O)[C@H](Cc1cscn1)NC(=O)OC(C)(C)C)C(C)(C)O	189 to 191 °C
O=C(Cc1ccccc1)Nc1ccc(-c2ccc(C(=O)O)c(=O)[nH]2)cc1	> 280 °C
CCCCCS(=O)(=O)NC(=O)CCc1ccc(OCCOC)cc1Oc1ncc(C(F)(F)F)cc1Cl	140 to 142 °C
Clc1nn2cnnc2c2c1C1CCC2CC1	137 to 140 °C
CCCCCCC(=O)Oc1cc(-c2nc3ccccc3[nH]c2=O)cc([N+](=O)[O-])c1OC(=O)CCCCCC	186 to 188 °C
CCc1[nH]n(C2CCCC2)c2nc(-n3ccnc3)nc(=O)c1-2	228 to 230 °C
O=C(N[C@H]1CCN(CCc2ccc(F)cc2)C1)N(C1CCCCC1)C1CCCCC1	97 to 98 °C
CC(C)OC1=NC(=O)N(C(C)C)S(=O)(=O)N1	164 to 167 °C
CCCCNC(=O)n1c(=S)[nH]c2ccccc21	179 to 180 °C
CC(C)CNc1cccnc1N1CCN(C(=O)c2ccc(C(=O)NC(C)(C)CO)cn2)CC1	140 to 143 °C
COC(=O)c1ccc(C2=NOC(c3cc(Cl)cc(C(F)(F)F)c3)(C(F)(F)F)C2)c2ccccc12 (configuration not stated)	112 °C
Cn1c(-c2ccccc2Cl)cc2ncccc2c1=O	152 to 153 °C
CC(C)c1cccc(C(C)C)c1NC(=O)N(Cc1ccc(N(C)C)cc1)c1ccc(C(C)(C)C)cc1	154 to 155 °C

SMILES	melting point
COc1ccc(-c2cc(N3CCN(c4ccccc4)CC3)nc(C)c2-c2ccc(OC)cc2)cc1	173 to 174 °C
COc1ccc(S(=O)(=O)n2c(=O)n(-c3ccccc3)c3cc(Cl)ccc32)cc1OC	154 °C
COc1cc2c(cc1OC)/C(=N/OCc1ccc3nonc3c1)CCC2	139 to 140 °C
CCOC(=O)c1oc2c([N+](=O)[O-])c(O)ccc2c1C	186 to 188 °C
CS(=O)(=O)c1ccc(-c2sc(COc3cccc(Cl)c3)nc2-c2ccc(F)cc2)cc1	128 to 131 °C
CC(C)Oc1c(-c2ccc(S(C)(=O)=O)cc2)cnn(-c2ccc(F)cc2)c1=O	135 to 137 °C
CCOc1ccc(C(=O)O)c(Cl)n1	185 to 188 °C
CC1CCCC=C1c1ccc(C(=O)N2Cc3cccn3Cc3ccccc32)cc1 (configuration not stated)	108 to 109 °C
Nc1nc2ccccc2c2c1ncn2CCOCCCc1ccncc1	160 to 162 °C
O=C(Nc1cccnc1NCc1ccc(Cl)cc1)c1ccccc1F	76 to 78 °C
FC(F)(F)c1cc(C(F)(F)F)n(-c2ccc(NCc3ccncc3)cc2)n1	92 to 94 °C
C=C(C)C(=O)c1ccc(OC)c(Cl)c1Cl	59 °C
COC(=O)c1cc(C(=O)NC(C)C(=O)OC)c2ccc(Cc3ccc(F)cc3)nc2c1O (configuration not stated)	157 to 158 °C
Cc1cccc(C(=O)c2ccc(O)cc2)c1C	155 to 158 °C
Cc1[nH]c(=O)ccc1C(=O)c1ccccc1	185 to 187 °C
O=S(=O)(ON=C1c2ccccc2-c2ccccc21)c1ccc(O)cc1	216 to 217 °C
O=C(Nc1ccccc1C(F)(F)F)c1ccccc1	146 °C
Cc1nn(C)c(C(=O)N(C)C)c1[N+](=O)[O-]	57 to 59.5 °C
CC(C)n1nc(-c2nc(C(N)=O)c(N)nc2-c2ccccc2Br)ccc1=O	132 to 135 °C
COc1ccc(CNC(=O)C(OC)OC)cc1OC	60 °C
